Laboratory results as given in patent EP4748837A1, “AROMATIC AMIDE DERIVATIVE, AND PREPARATION METHOD THEREFOR AND USE THEREOF” (Zhejiang Hisun Pharmaceutical Co., Ltd., priority 2023, dated 2025).

Key:
[1] = Pharmacokinetic testing in mice after intragastric administration; type: in vivo; details: male, mouse, ICR mice, oral administration 10 mg/kg, plasma
Description: ICR mice were taken as test animals, and intragastrically administered with a control compound AMG650 and compounds 47 and 53 of the present invention, and then drug concentrations in plasma at different moments were determined by an LC/MS/MS method, so as to study pharmacokinetic characteristics of the compounds of the present invention in the mice.
Control compound AMG650, and Compounds 47 and 53.
ICR mice, male, 20-22 g, purchased from Vital River Laboratory Animal Technology Co., Ltd.
A proper amount of to-be-tested compound was weighed, proper amounts of DMA, 30% HS-15 and Saline were added in sequence, and the mixture was well mixed by ultrasonic vortex to prepare 1 mg/mL drug preparations respectively, wherein […]: 30% HS-15: Saline=5: 5: 90 (v: v: v).
ICR mice in each to-be-tested compound injection group (9 mice in each group) were fasted overnight and then intragastrically administered with the compound (PO, an administration dosage of the compound was 10 mg/kg and an administration volume of the compound was 10 mL/kg), and were fed 4 hours after administration.
0.25 hours, 0.5 hours, 1 hour, 2 hours, 4 hours, 6 hours, 8 hours and 24 hours before and after administration, about […] of blood was collected through an orbit, and a complete blood sample was placed in an EDTA-K2-containing anticoagulation tube. The collected blood samples were placed on ice, and plasma was centrifugally separated (centrifugation conditions: 1500 g, 10 minutes). The collected plasma was stored at -40°C - -20°C before analysis.
A content of the to-be-tested compound in the plasma of the mice after intragastric administration was determined by LC-MS/MS.

[2] = tested on: OVCAR-3 cells; experiment: Inhibition of OVCAR-3 cell proliferation (CellTiter-Glo cell viability); type: cell-based; details: Homo sapiens; OVCAR-3 cells (TP53 R248Q mutation), 72 hours culture with compound; read-out: IC50
How it was run: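 OVCAR-3 cells (TP53 R248Q) in RPMI 1640 with 10% FBS were seeded at 1000 cells/well, grown overnight, then exposed to compound (final 1000 nM–0.015 nM) for 72 h at 37°C, 5% CO2. Viability was read by CellTiter-Glo luminescence. IC50 came from nonlinear regression of inhibition relative to 0.3% DMSO control.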

[3] = tested on: OVCAR-3 human ovarian adenocarcinoma tumor mass; experiment: Pharmacodynamic testing in subcutaneous OVCAR-3 xenograft model; type: in vivo, BALB/c nude mice; details: 35 days after administration, 8 mg/kg po QD, BALB/c nude mice
Description: Anti-tumor effects and Safeties of the Compounds 47 and 53 of the present invention in a BALB/c nude mouse animal model subjected to subcutaneous xenotransplantation of OVCAR-3 human ovarian adenocarcinoma tumor mass were evaluated.
BALB/c; nude mice, female, 6-7 weeks old, purchased from Jiangsu Gempharmatech Biotechnology Co., Ltd.
Mice in a solvent control group were given DMA: CrEL: 5%GS=10: 10: 80 (v: v: v). AMG650: a proper amount of AMG-650 was weigned, proper amounts of DMA, CrEL and 5% GS were added in sequence, and the mixture was well mixed by ultrasonic vortex to prepare 0.8 mg/mL drug preparations respectively, wherein DMA: CrEL : 5% GS=10: 10: 80 (v: v: v).
Compound 47: a proper amount of Compound 47 was added with proper amounts of DMA, CrEL and 5% GS in sequence, and evenly mixed by ultrasonic vortex to prepare 0.8 mg/mL drug preparations respectively, wherein DMA, CrEL and 5% GS=10: 10: 80 (v: v: v).
Compound 53: a proper amount of Compound 53 was weighed, proper amounts of DMA, CrEL and 5% GS were added in sequence, and the mixture was well mixed by ultrasonic vortex to prepare 0.8 mg/mL drug preparations respectively, wherein DMA: CrEL : 5% GS=10: 10: 80 (v: v: v).
An appropriate OVCAR-3 tumor-bearing animal was selected, and a 1 mm×1 mm×1 mm OVCAR-3 tumor mass was acquired aseptically and placed into normal saline for later use, which was used for subcutaneous tumor inoculation in a right side of back of the BALB/c nude mice.
About 1 mm×1 mm×1 mm OVCAR-3 tumor mass was subcutaneously inoculated in the right side of back of the female BALB/c nude mice. When an average tumor volume reached about 100-250 mm^3, the mice were randomly grouped based on tumor size, with 6 mice in each group.
Animals in each group were given the test compound once per day according to an animal weight at a fixed time every day by oral administration (po), the animals started to be administered with the test compound for the first time on the day of grouping for 35 consecutive days, and the animal weight was recorded every day.
The 1st group (G1) was a solvent control group; and
The 2nd-4th groups […] were orally administered with AMG-650, Compound 47 and Compound 53 at an administration dosage of 8 mg/kg once per day (QD).

[4] = tested on: HT-29 cells; experiment: Inhibition of HT-29 cell proliferation (CellTiter-Glo cell viability); type: cell-based; details: Homo sapiens; HT-29 cells (TP53 R273H mutation), 120 hours culture with compound; read-out: IC50
How it was run: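 HT-29 cells (TP53 R273H) in McCOY's 5A with 10% FBS, seeded 1000 cells/well overnight, then exposed to compound at 1000 nM–0.015 nM final for 120 hours at 37°C. Viability by CellTiter-Glo luminescence versus 0.3% DMSO control; IC50 by nonlinear regression of log concentration–inhibition.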

[5] = target: T1, recombinant human KIF18A (Homo sapiens, UniProt Q8NI77); experiment: Inhibition of KIF18A enzyme activity (ADP-Glo assay); type: biochemical; details: recombinant human KIF18A 100 nM, ATP 60 µM, tubulin, paclitaxel; read-out: IC50
T1 construct: purchased GenScript
Description: Inhibition degrees of the compounds of the present invention on recombinant human KIF18A enzyme activity in vitro were determined by the following method. An ADP-Glo™ Kinase Assay kit (article number V9102) from Promega Company was used in this method. Detailed experimental operation referred to the instruction of the kit.
An experimental process was briefly described as follows: a test compound was dissolved in DMSO first to prepare a stock solution, then the stock solution was gradiently diluted with a reaction buffer A ([…], 0.01% Pluronic F-68), and a final concentration of the test compound in the reaction system was in a range of 10000 nM-0.15 nM; and a KIF18A protein and ATP working solution was prepared by using a reaction buffer B (15 mM Tris, pH 7.5, 10 mM MgCl2, 0.01% Pluronic F-68, 37.5 µg/ml tubulin, 1.25 µM paclitaxel). The reaction was carried out in a 384-well microplate. The test compound and the recombinant human KIF18A protein (final concentration of 100 nM, entrusted to GenScript for expression) were added into the wells and incubated at room temperature for 20 minutes, and subsequently, an ATP solution (component V915A from the ADP-Glo™ Kinase Assay kit, final concentration of 60 µM) was added to the reaction solution and the system was incubated at room temperature for 20 minutes. Subsequently, 5 µL of ADP-Glo Reagent was added to the reaction systemand the system was incubated at room temperature for 50 minutes. Then, 10 µL of Kinase Detection Reagent was added to the reaction system and the system was incubated at room temperature for 30 minutes. After the incubation was ended, a chemiluminiscence intensity value of each well was determined by a microplate reader in a Luminescence mode.

T1 sequence (Q8NI77 whole entry): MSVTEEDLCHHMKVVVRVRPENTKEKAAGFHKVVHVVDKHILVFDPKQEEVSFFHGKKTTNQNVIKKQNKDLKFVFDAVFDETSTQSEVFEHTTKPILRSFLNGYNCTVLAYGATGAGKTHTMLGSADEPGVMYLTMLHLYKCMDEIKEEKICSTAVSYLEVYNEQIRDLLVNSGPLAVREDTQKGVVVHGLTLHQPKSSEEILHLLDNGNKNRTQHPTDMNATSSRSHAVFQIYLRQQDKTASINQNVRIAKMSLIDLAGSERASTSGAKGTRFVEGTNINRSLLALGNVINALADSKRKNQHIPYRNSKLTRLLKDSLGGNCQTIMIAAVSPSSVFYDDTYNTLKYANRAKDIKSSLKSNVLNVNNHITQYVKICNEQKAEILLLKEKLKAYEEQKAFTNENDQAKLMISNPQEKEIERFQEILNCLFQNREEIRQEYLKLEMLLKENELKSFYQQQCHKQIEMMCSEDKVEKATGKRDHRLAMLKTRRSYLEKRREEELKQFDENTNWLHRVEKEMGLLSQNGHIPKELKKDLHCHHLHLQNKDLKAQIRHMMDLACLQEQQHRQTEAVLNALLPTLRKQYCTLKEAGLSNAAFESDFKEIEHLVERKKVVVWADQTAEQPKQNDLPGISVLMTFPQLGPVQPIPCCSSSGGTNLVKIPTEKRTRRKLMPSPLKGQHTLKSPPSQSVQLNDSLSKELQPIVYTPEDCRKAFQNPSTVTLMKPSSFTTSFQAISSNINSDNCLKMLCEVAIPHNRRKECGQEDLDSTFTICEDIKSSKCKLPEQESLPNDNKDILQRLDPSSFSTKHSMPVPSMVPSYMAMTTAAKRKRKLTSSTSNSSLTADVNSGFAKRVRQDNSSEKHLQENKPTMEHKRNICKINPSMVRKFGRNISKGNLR
T1 sequence (P68363 whole entry partner): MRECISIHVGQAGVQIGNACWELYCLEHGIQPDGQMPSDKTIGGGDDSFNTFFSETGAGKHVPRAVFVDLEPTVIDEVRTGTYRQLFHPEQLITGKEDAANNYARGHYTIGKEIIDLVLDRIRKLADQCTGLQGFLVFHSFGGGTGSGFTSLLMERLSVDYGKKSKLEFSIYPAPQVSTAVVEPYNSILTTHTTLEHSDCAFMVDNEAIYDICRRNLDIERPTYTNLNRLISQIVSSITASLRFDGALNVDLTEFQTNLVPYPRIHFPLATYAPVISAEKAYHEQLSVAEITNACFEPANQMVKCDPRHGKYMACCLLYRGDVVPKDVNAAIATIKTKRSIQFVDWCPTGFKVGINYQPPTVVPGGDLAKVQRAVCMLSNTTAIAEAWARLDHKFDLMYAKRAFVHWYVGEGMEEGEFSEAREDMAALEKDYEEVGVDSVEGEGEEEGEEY
T1 sequence (Q9BVA1 whole entry partner): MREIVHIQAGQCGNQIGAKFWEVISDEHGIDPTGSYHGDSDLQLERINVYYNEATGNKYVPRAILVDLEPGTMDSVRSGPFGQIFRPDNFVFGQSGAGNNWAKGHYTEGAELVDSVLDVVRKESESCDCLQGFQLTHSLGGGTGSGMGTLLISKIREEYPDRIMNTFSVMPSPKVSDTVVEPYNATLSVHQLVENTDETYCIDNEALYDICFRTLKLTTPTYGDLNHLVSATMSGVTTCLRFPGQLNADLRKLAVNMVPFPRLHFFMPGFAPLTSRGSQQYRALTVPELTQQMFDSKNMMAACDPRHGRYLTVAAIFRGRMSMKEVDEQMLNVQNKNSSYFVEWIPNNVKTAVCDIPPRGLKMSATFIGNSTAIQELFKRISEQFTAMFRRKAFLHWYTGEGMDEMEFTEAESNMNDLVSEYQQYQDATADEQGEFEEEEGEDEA

AUC(0-inf) ([1]; read-out: Area under the curve AUC0-∞) | half-life ([1]; read-out: Half-life period T1/2 (converted)) | Cmax ([1]; read-out: Plasma concentration Cmax) | IC50 [2] | IC50 [4] | IC50 [5] | SMILES | TGI% [3] | Tumor volume (x±S) ([3]; mean value ± standard error, in mm³ (unit assumed))
52500 ng·h/mL | 9.64 h | 3050 ng/mL | 64.5 nM | 61.7 nM |  | Cc1cc(NC(=O)c2ccc(NS(=O)(=O)CCO)cc2N2CCC3(CC2)CC3)nc(N2CCC(F)(F)CC2)n1 [AMG 650, reference compound] | 68.1% | 313±76
 |  |  | 12.6 nM | 9.6 nM | 70.4 nM | CCS(=O)(=O)Nc1ccc(C(=O)Nc2ccc(-c3nnco3)c(N3CC(F)(F)C3)c2)c(N2CCC3(CC2)CC3)c1 [Example 49, N-(3-(3,3-difluoroazetidin-1-y 1)-4-(1,3,4-oxadiazol-2-yl)phenyl)-4-(ethylsulfonamido)-2-(6-azaspiro[2.5]octan-6-yl)benzamide] |  | 
 |  |  | 2.2 nM | 1.5 nM | 91.7 nM | [2H]C([2H])([2H])Oc1ccc(NC(=O)c2ccc(NS(=O)(=O)CCO)cc2N2CCC3(CC2)CC3)cc1N1CCC(F)(F)CC1 [Example 58, N-(3-(4,4-difluoropiperidin-1-yl)-4-(methoxy-d3)phenyl)-4-( (2-hydroxyethyl)sulfonamido) -2-(6-azaspiro[2.5]octan-6-yl) benzamide] |  | 
